Reference: paper PMC3297008, “Novel Marine Phenazines as Potential Cancer Chemopreventive and Anti-Inflammatory Agents” (Marine Drugs, 2012)
Like-named read-outs stand apart in the source and are kept apart here.

Key:
L1210 cells = tested on: L1210 cells; parameters: method as in PMID 2753825; settings: cited from earlier work
P388 cells = tested on: P388 cells; parameters: method as in PMID 2753825; settings: cited from earlier work
5-α-reductase [1] = tested on: 5-α-reductase; parameters: method as in PMID 2503481; settings: derived from dog prostate; cited from earlier work
[2] = tested on: PGE2 production in LPS-induced RAW 264.7 cells; experiment: LPS-induced PGE2 production in RAW 264.7 cells (ELISA); format: cell-based; settings: for IC50: read-out: PGE2 IC50; for inhibition at 50 µM: RAW264.7, read-out: PGE2 % inhibition (50 µM)
Description: RAW 264.7 cells (1 × 10^5 cells/well, 200 µL) were incubated in a 96-well culture plate in the presence of 5% CO2 at 37 °C for 24 h. The medium was changed to non-colored DMEM containing 5% FBS, and the cells were treated with various concentrations of compounds for 30 min followed by 1 μg/mL of LPS treatment for 24 h. Cell media were collected, diluted 18-times and used for measuring PGE2. Nunc-Immuno 96-well plates were coated with secondary antibody (goat anti-mouse IgG) affinity purified (Jackson Immuno Research Laboratories). Aliquots of cell media were added to the immune plate with primary PGE2 monoclonal antibody (Cayman Chemical) and a tracer PGE2-acetylcholinesterase (Cayman Chemical) and incubated overnight at room temperature in the dark. The next day, the wells were aspirated, washed, 200 µL of Elman’s reagent was added in each well, and incubated 2–5 h at 37 °C out of direct light until control wells reach an optical density 0.4–0.5. Gentle rotating/shaking was used to decrease the time required for color development. Absorbance was read at 412 nm. The PGE2 concentration of each sample was calculated from a PGE2 standard curve (PGE2 from Cayman Chemical). The percent inhibition as a function of the inhibitor concentration was graphed to determine the IC50 values (concentration at which there was 50% inhibition).

5-α-reductase [3] = tested on: 5-α-reductase; parameters: method as in PMID 2503481; settings: derived from rat prostate; cited from earlier work
5-α-reductase [4] = tested on: 5-α-reductase; parameters: method as in PMID 2503481; settings: derived from human prostate; cited from earlier work
[5] = Mus musculus, RAW264.7, LPS-induced RAW 264.7 cells
[6] = Mus musculus, LPS-induced RAW 264.7 cells

| Structure (SMILES) | growth inhibition of L1210 cells in culture (L1210 cells) | growth inhibition of P388 cells in culture (P388 cells) | inhibition of 5-α-reductase (5-α-reductase [1]) | IC50 [2, 5] | inhibition at 50 µM [2, 6] | inhibition of 5-α-reductase (5-α-reductase [3]) | inhibition of 5-α-reductase (5-α-reductase [4]) | IC50 ([2]; LPS-induced RAW 264.7 cells) |
| --- | --- | --- | --- | --- | --- | --- | --- | --- |
| CC1=C(Cn2c3cccc(=O)c-3nc3ccccc32)CCC(C)(C)C1 [Lavanducyanin 3, lavanducyanin] | strongly inhibits the growth | strongly inhibits the growth | competitively inhibits | 0.63 ± 0.16 µM | 80.6 ± 18.4% | competitively inhibits | competitively inhibits |  |
| CC(C)=CCn1c2ccc(Br)c(=O)c-2nc2ccccc21 [Phenazine 2] |  |  |  | 0.89 ± 0.22 µM | 86.9 ± 12.9% |  |  |  |
| CC1=C(Cn2c3ccc(Br)c(=O)c-3nc3ccccc32)CCC(C)(C)C1 [Phenazine 1] |  |  |  | 7.5 µM | 72.5 ± 16.3% |  |  | 7.15 ± 2.03 µM |
